The record followed here is patent US5656736A, “Compound UCH9” (Kyowa Hakko Kogyo Co., Ltd., priority 1993, dated 1997).

As a reminder, the IC50 is the concentration needed to halve the response being measured. As usually defined, the MIC is the least concentration at which growth counts as inhibited. High values mean a less susceptible organism, low ones a more susceptible organism.

≈ marks a conversion by molar mass, not a printed value. Where a name gives a salt, the structure may show the parent alone.

Data set [1] concerns HeLa S3 cells (ATCC HTB22). As to the kind of experiment: Growth inhibition against HeLa S3 cells (Neutral Red staining). Format: cell-based. Particulars: Homo sapiens, 72 hours, 37° C. The method, then:
HeLa S3 cells (ATCC HTB22) were suspended in a medium comprising 10% fetal calf serum, 2 mM glutamine and MEM medium (Nippon Pharmaceutical Co., Ltd.) (hereinafter referred to as medium A) to a concentration of 3×10^4 cells/mi. The cell suspension was put into wells of a 96-well microtiter plate in an amount of 0.1 ml per well. The cells in the plate were cultured at 37° C. for 20 hours in a CO2 -incubator. Subsequently, the test compound obtained in Example 1 which was appropriately diluted with medium A was added to the wells in an amount of 0.1 ml/well. The cells were further cultured at 37° C. for 72 hours in the CO2 -incubator, and then the culture supernatant was removed. To the residue was added a medium comprising medium A and 0.02% Neutral Red in an amount of 0.1 ml per well, followed by culturing at 37° C. for one hour in the CO2 -incubator, whereby the cells were stained. After removal of the culture supernatant, the residue was washed once with physiological saline. The pigment was extracted with 0.001N hydrochloric acid/30% ethanol, and the absorbance at 550 nm was measured by using a microplate reader. The concentration of the test compound at which the growth of the cells is inhibited by 50% (IC50) was calculated by comparing the absorbance of untreated cells with those of the cells treated with the test compound at known concentrations.

For data set [2], the system named is Enterococcus faecium ATCC 10541. Nature of the data set: Antibacterial activity, agar dilution method (MIC). Format: cell-based. Conditions: ATCC10541, pH 7. As to the method: (§1) The minimum inhibitory concentration (MIC) of the compound obtained in Example 1 against the growth of various bacteria is shown in Table 1.
(§2) The antibacterial activity was determined by the agar dilution method using a medium (pH 7) which comprises 3 g/l Bacto-tryptone (Difco Laboratories),3 g/l meat extract, 1 g/l yeast extract, 1 g/l glucose and 16 g/l agar.
In general terms: In agar dilution, organisms are placed on agar that contains the substance at set levels.

Data set [3] relates to Staphylococcus aureus ATCC 6538P. As to the kind of experiment: Antibacterial activity, agar dilution method (MIC). Format: cell-based. Particulars: ATCC6538P, pH 7. The method, then: as §1, §2
In data set [4] the test system is Bacillus subtilis No. 10707. Nature of the data set: Antibacterial activity, agar dilution method (MIC). Particulars: pH 7. Type of data set: cell-based. As to the method:
as §1, §2

Another data set is described as follows: Solubility. Type of data set: physicochemical.

`CCC(C)c1c(OC2CC(O)C(O)C(C)O2)cc2cc3c(c(O)c2c1O)C(=O)C(OC1CC(OC2CC(OC4CC(OC5CC(OC)C(O)C(C)O5)C(O)C(C)O4)C(O)C(C)O2)C(O)C(C)O1)C(C(OC)C(=O)C(O)C(C)O)C3` (centres unmarked) [UCH9] came in with an IC50 in data set [1] of 0.015 µg/mL (≈ 0.0133 µM). Moreover, the MIC in data set [2] is 41.6 µg/mL (≈ 36.9 µM); in data set [3], 5.2 µg/mL (≈ 4.61 µM); in data set [4], 0.04 µg/mL (≈ 0.0355 µM).
As to `CCC(C)c1c(OC2CC(O)C(O)C(C)O2)cc2cc3c(c(O)c2c1O)C(=O)C(OC1CC(OC2CC(OC4CC(OC5CC(OC)C(O)C(C)O5)C(O)C(C)O4)C(O)C(C)O2)C(O)C(C)O1)C(C(OC)C(=O)C(O)C(C)O)C3` (centres unmarked) [UCH9·1/2 magnesium salt], the Solubility entry is “sparingly soluble” in the data set “Solubility” (chloroform), “Soluble” in “Solubility” (dimethylsulfoxide (DMSO)), “Soluble” in the data set “Solubility” (methanol) and “sparingly soluble” in the data set “Solubility” (water).
